Calls of active or inactive are those of the source. The calls are words filed in the database; no cut-off is given here.
Key:
[1] = system: Felis catus; experiment: Compound tested in vivo for sympathetic neuronal activity in cat cardioaccelerator nerve after iv administration; format: functional; settings: Sympathetic neuron
[2] = system: Felis catus; experiment: Compound tested in vitro for sympathetic neuronal activity in cat atria […]; format: functional; settings: Sympathetic neuron, read-out: ED50 (the source's name)
[3] = system: Felis catus; experiment: Compound tested in vivo for sympathetic neuronal activity in cat cardioaccelerator nerve after intraduodenal administration; format: functional; settings: Sympathetic neuron
[4] = target: T1, Dopamine receptor (Homo sapiens) (UniProt P14416+P35462+P21918+P21917+P21728); experiment: […] inhibitory activity against dopamine receptor in isolated cat atria; active; settings: Felis catus; target entry is the homologue from another species
[5] = system: Felis catus; experiment: Compound tested in vitro for sympathetic neuronal activity in cat atria […]; no inhibition with concentrations uM; format: functional; settings: Sympathetic neuron
[6] = target: T1, Dopamine receptor (Homo sapiens); experiment: […] inhibitory activity against dopamine receptor in isolated cat atria; inactive; settings: Felis catus; target entry is the homologue from another species

Row | Compound | ED50 [1] [µmol/kg] | EC50 [2] [nM] | ED50 [3] [µmol/kg] | Activity [4] | ED50 [5] | Activity [6]
1 | CN1C[C@H](CC#N)C[C@@H]2c3cccc4[nH]c(Cl)c(c34)C[C@H]21 [LERGOTRILE] | 0.27 |  |  |  |  | 
2 | CCCN(CCC)CCc1cc(O)cc2[nH]ccc12 | 0.019 | 27 | 0.047 | Active |  | 
3 | CCCN(CCC)CCc1cccc2[nH]ccc12 | 0.22 |  |  |  | inactive | inactive
